Measured values taken from ChEMBL document CHEMBL4257522, “Synthesis and preliminary anti-inflammatory and anti-bacterial evaluation of some diflunisal aza-analogs” (Medchemcomm, 2018).
Active and inactive are the calls of the source. The calls are words filed in the database; no cut-off is given here.

Tests used:
Macrophage cell line [1] = experiment: Cytotoxicity against human PBMC-differentiated macrophages treated for 24 hrs followed by compound washout and measured after 48 hrs by MTT assay; assay type: cell-based
Macrophage cell line [2] = experiment: Antiinflammatory activity in human PBMC-differentiated macrophages assessed as inhibition of LPS-induced prostaglandin production at 0.01 to 10 uM measured after 24 hrs by ELISA; assay type: functional, cell-based
Macrophage cell line [3] = experiment: Induction of IL-8 production in human PBMC-differentiated macrophages after 24 hrs by ELISA; assay type: cell-based
Macrophage cell line [4] = experiment: Induction of IL-1beta production in human PBMC-differentiated macrophages after 24 hrs by ELISA; assay type: cell-based
Macrophage cell line [5] = experiment: Induction of prostaglandin production in human PBMC-differentiated macrophages after 24 hrs by ELISA; assay type: cell-based
Staphylococcus aureus [6] = experiment: Toxicity in Staphylococcus aureus ATCC 33592 up to 32 uM measured after 16 hrs; assay type: organism-based
Streptococcus pyogenes [7] = experiment: Toxicity in Streptococcus pyogenes ATCC 14289 up to 32 uM measured after 16 hrs; assay type: organism-based
Klebsiella pneumoniae [8] = experiment: Toxicity in Klebsiella pneumoniae ATCC 13883 up to 32 uM measured after 16 hrs; assay type: organism-based
Enterococcus faecium [9] = experiment: Toxicity in Enterococcus faecium ATCC 700221 up to 32 uM measured after 16 hrs; assay type: organism-based; conditions: in vitro
Escherichia coli [10] = experiment: Toxicity in Escherichia coli ATCC 43894 up to 32 uM measured after 16 hrs; assay type: organism-based
Staphylococcus aureus [11] = experiment: Potentiation of methicillin-induced antibacterial activity against Staphylococcus aureus ATCC 33592 assessed as minimum modulatory concentration up to 32 uM measured after 16 hrs in presence of MIC/4 methicillin; assay type: functional; conditions: ATCC 33592, 16 h, read-out: MEC
Staphylococcus aureus [12] = experiment: Potentiation of geneticin-induced antibacterial activity against Staphylococcus aureus ATCC 33592 assessed as minimum modulatory concentration up to 32 uM measured after 16 hrs in presence of MIC/4 geneticin; assay type: functional; conditions: ATCC 33592, 16 h, read-out: MEC
Staphylococcus aureus [13] = experiment: Potentiation of ciprofloxacin-induced antibacterial activity against Staphylococcus aureus ATCC 33592 assessed as minimum modulatory concentration up to 32 uM measured after 16 hrs in presence of MIC/4 ciprofloxacin; assay type: functional; conditions: ATCC 33592, 16 h, read-out: MEC
Staphylococcus aureus [14] = experiment: Potentiation of tetracycline-induced antibacterial activity against Staphylococcus aureus ATCC 33592 assessed as minimum modulatory concentration up to 32 uM measured after 16 hrs in presence of MIC/4 tetracycline; assay type: functional; conditions: ATCC 33592, 16 h, read-out: MEC
Staphylococcus aureus [15] = experiment: Potentiation of erythromycin-induced antibacterial activity against Staphylococcus aureus ATCC 33592 assessed as minimum modulatory concentration up to 32 uM measured after 16 hrs in presence of MIC/4 erythromycin; assay type: functional; conditions: ATCC 33592, 16 h, read-out: MEC
Streptococcus pyogenes [16] = experiment: Potentiation of methicillin-induced antibacterial activity against Streptococcus pyogenes ATCC 14289 assessed as minimum modulatory concentration up to 32 uM measured after 16 hrs in presence of MIC/4 methicillin; assay type: functional; conditions: ATCC 14289, 16 h, read-out: MEC
Streptococcus pyogenes [17] = experiment: Potentiation of geneticin-induced antibacterial activity against Streptococcus pyogenes ATCC 14289 assessed as minimum modulatory concentration up to 32 uM measured after 16 hrs in presence of MIC/4 geneticin; assay type: functional; conditions: ATCC 14289, 16 h, read-out: MEC
Streptococcus pyogenes [18] = experiment: Potentiation of ciprofloxacin-induced antibacterial activity against Streptococcus pyogenes ATCC 14289 assessed as minimum modulatory concentration up to 32 uM measured after 16 hrs in presence of MIC/4 ciprofloxacin; assay type: functional; conditions: ATCC 14289, 16 h, read-out: MEC
Streptococcus pyogenes [19] = experiment: Potentiation of tetracycline-induced antibacterial activity against Streptococcus pyogenes ATCC 14289 assessed as minimum modulatory concentration up to 32 uM measured after 16 hrs in presence of MIC/4 tetracycline; assay type: functional; conditions: ATCC 14289, 16 h, read-out: MEC
Streptococcus pyogenes [20] = experiment: Potentiation of erythromycin-induced antibacterial activity against Streptococcus pyogenes ATCC 14289 assessed as minimum modulatory concentration up to 32 uM measured after 16 hrs in presence of MIC/4 erythromycin; assay type: functional; conditions: ATCC 14289, 16 h, read-out: MEC
Klebsiella pneumoniae [21] = experiment: Potentiation of geneticin-induced antibacterial activity against Klebsiella pneumoniae ATCC 13883 assessed as minimum modulatory concentration up to 32 uM measured after 16 hrs in presence of MIC/4 geneticin; assay type: functional; conditions: ATCC 13883, 16 h, read-out: MEC
Klebsiella pneumoniae [22] = experiment: Potentiation of ciprofloxacin-induced antibacterial activity against Klebsiella pneumoniae ATCC 13883 assessed as minimum modulatory concentration up to 32 uM measured after 16 hrs in presence of MIC/4 ciprofloxacin; assay type: functional; conditions: ATCC 13883, 16 h, read-out: MEC
Klebsiella pneumoniae [23] = experiment: Potentiation of tetracycline-induced antibacterial activity against Klebsiella pneumoniae ATCC 13883 assessed as minimum modulatory concentration up to 32 uM measured after 16 hrs in presence of MIC/4 tetracycline; assay type: functional; conditions: ATCC 13883, 16 h, read-out: MEC
Enterococcus faecium [24] = experiment: Potentiation of methicillin-induced antibacterial activity against Enterococcus faecium ATCC 700221 assessed as minimum modulatory concentration up to 32 uM measured after 16 hrs in presence of MIC/4 methicillin; assay type: functional; conditions: ATCC 700221, 16 h, read-out: MEC
Enterococcus faecium [25] = experiment: Potentiation of geneticin-induced antibacterial activity against Enterococcus faecium ATCC 700221 assessed as minimum modulatory concentration up to 32 uM measured after 16 hrs in presence of MIC/4 geneticin; assay type: functional; conditions: ATCC 700221, 16 h, read-out: MEC
Enterococcus faecium [26] = experiment: Potentiation of tetracycline-induced antibacterial activity against Enterococcus faecium ATCC 700221 assessed as minimum modulatory concentration up to 32 uM measured after 16 hrs in presence of MIC/4 tetracycline; assay type: functional; conditions: ATCC 700221, 16 h, read-out: MEC
Enterococcus faecium [27] = experiment: Potentiation of erythromycin-induced antibacterial activity against Enterococcus faecium ATCC 700221 assessed as minimum modulatory concentration up to 32 uM measured after 16 hrs in presence of MIC/4 erythromycin; assay type: functional; conditions: ATCC 700221, 16 h, read-out: MEC
Pseudomonas aeruginosa [28] = experiment: Potentiation of methicillin-induced antibacterial activity against Pseudomonas aeruginosa ATCC BAA-2108 assessed as minimum modulatory concentration up to 32 uM measured after 16 hrs in presence of MIC/4 methicillin; assay type: functional; conditions: ATCC BAA-2108, 16 h, read-out: MEC
Pseudomonas aeruginosa [29] = experiment: Potentiation of ciprofloxacin-induced antibacterial activity against Pseudomonas aeruginosa ATCC BAA-2108 assessed as minimum modulatory concentration up to 32 uM measured after 16 hrs in presence of MIC/4 ciprofloxacin; assay type: functional; conditions: ATCC BAA-2108, 16 h, read-out: MEC
Pseudomonas aeruginosa [30] = experiment: Potentiation of tetracycline-induced antibacterial activity against Pseudomonas aeruginosa ATCC BAA-2108 assessed as minimum modulatory concentration up to 32 uM measured after 16 hrs in presence of MIC/4 tetracycline; assay type: functional; conditions: ATCC BAA-2108, 16 h, read-out: MEC
Pseudomonas aeruginosa [31] = experiment: Potentiation of erythromycin-induced antibacterial activity against Pseudomonas aeruginosa ATCC BAA-2108 assessed as minimum modulatory concentration up to 32 uM measured after 16 hrs in presence of MIC/4 erythromycin; assay type: functional; conditions: ATCC BAA-2108, 16 h, read-out: MEC
Escherichia coli [32] = experiment: Potentiation of ciprofloxacin-induced antibacterial activity against Escherichia coli ATCC 43894 assessed as minimum modulatory concentration up to 32 uM measured after 16 hrs in presence of MIC/4 ciprofloxacin; assay type: functional; conditions: ATCC 43894, 16 h, read-out: MEC
Escherichia coli [33] = experiment: Potentiation of tetracycline-induced antibacterial activity against Escherichia coli ATCC 43894 assessed as minimum modulatory concentration up to 32 uM measured after 16 hrs in presence of MIC/4 tetracycline; assay type: functional; conditions: ATCC 43894, 16 h, read-out: MEC
Escherichia coli [34] = experiment: Potentiation of erythromycin-induced antibacterial activity against Escherichia coli ATCC 43894 assessed as minimum modulatory concentration up to 32 uM measured after 16 hrs in presence of MIC/4 erythromycin; assay type: functional; conditions: ATCC 43894, 16 h, read-out: MEC

SMILES | IC50 (Macrophage cell line [1]) [µM] | inhibition (Macrophage cell line [2]) | Activity (Macrophage cell line [3]) | Activity (Macrophage cell line [4]) | Activity (Macrophage cell line [5]) | Activity (Staphylococcus aureus [6]) | Activity (Streptococcus pyogenes [7]) | Activity (Klebsiella pneumoniae [8]) | Activity (Enterococcus faecium [9]) | Activity (Escherichia coli [10]) | minimal effective concentration (Staphylococcus aureus [11]) [µM] | minimal effective concentration (Staphylococcus aureus [12]) [µM] | minimal effective concentration (Staphylococcus aureus [13]) [µM] | minimal effective concentration (Staphylococcus aureus [14]) [µM] | minimal effective concentration (Staphylococcus aureus [15]) [µM] | minimal effective concentration (Streptococcus pyogenes [16]) [µM] | minimal effective concentration (Streptococcus pyogenes [17]) [µM] | minimal effective concentration (Streptococcus pyogenes [18]) [µM] | minimal effective concentration (Streptococcus pyogenes [19]) [µM] | minimal effective concentration (Streptococcus pyogenes [20]) [µM] | other results
O=C(O)c1ccnc(Cc2ccccc2)c1O | > 100 | inactive | Non-Toxic | Non-Toxic | Non-Toxic | Non-Toxic | Non-Toxic | Non-Toxic | Non-Toxic | Non-Toxic | > 32 | > 32 | > 32 | > 32 | > 32 | > 32 | > 32 | > 32 | > 32 | > 32 | minimal effective concentration (Klebsiella pneumoniae [21]): > 32 µM; minimal effective concentration (Klebsiella pneumoniae [22]): > 32 µM; minimal effective concentration (Klebsiella pneumoniae [23]): > 32 µM; minimal effective concentration (Enterococcus faecium [24]): > 32 µM; minimal effective concentration (Enterococcus faecium [25]): > 32 µM; minimal effective concentration (Enterococcus faecium [26]): > 32 µM; minimal effective concentration (Enterococcus faecium [27]): > 32 µM; minimal effective concentration (Pseudomonas aeruginosa [28]): > 32 µM; minimal effective concentration (Pseudomonas aeruginosa [29]): > 32 µM; minimal effective concentration (Pseudomonas aeruginosa [30]): > 32 µM; minimal effective concentration (Pseudomonas aeruginosa [31]): > 32 µM; minimal effective concentration (Escherichia coli [32]): > 32 µM; minimal effective concentration (Escherichia coli [33]): > 32 µM; minimal effective concentration (Escherichia coli [34]): > 32 µM
COc1cccc(-c2cc(C(=O)[O-])c(O)c[n+]2C)c1 | 96 | inactive | Non-Toxic | Non-Toxic | Non-Toxic | Non-Toxic | Non-Toxic | Non-Toxic | Non-Toxic | Non-Toxic | > 32 | > 32 | > 32 | > 32 | > 32 | > 32 | > 32 | > 32 | > 32 | > 32 | minimal effective concentration (Klebsiella pneumoniae [21]): > 32 µM; minimal effective concentration (Klebsiella pneumoniae [22]): > 32 µM; minimal effective concentration (Klebsiella pneumoniae [23]): > 32 µM; minimal effective concentration (Enterococcus faecium [24]): > 32 µM; minimal effective concentration (Enterococcus faecium [25]): > 32 µM; minimal effective concentration (Enterococcus faecium [26]): > 32 µM; minimal effective concentration (Enterococcus faecium [27]): > 32 µM; minimal effective concentration (Pseudomonas aeruginosa [28]): > 32 µM; minimal effective concentration (Pseudomonas aeruginosa [29]): > 32 µM; minimal effective concentration (Pseudomonas aeruginosa [30]): > 32 µM; minimal effective concentration (Pseudomonas aeruginosa [31]): > 32 µM; minimal effective concentration (Escherichia coli [32]): > 32 µM; minimal effective concentration (Escherichia coli [33]): > 32 µM; minimal effective concentration (Escherichia coli [34]): > 32 µM
O=C(O)c1ccnc(-c2ccccc2)c1O | > 100 | inactive | Non-Toxic | Non-Toxic | Non-Toxic | Non-Toxic | Non-Toxic | Non-Toxic | Non-Toxic | Non-Toxic | 0.25 | 0.5 | 16 | 2 | 0.25 | 0.5 | 2 | > 32 | 1 | 2 | minimal effective concentration (Klebsiella pneumoniae [21]): > 32 µM; minimal effective concentration (Klebsiella pneumoniae [22]): > 32 µM; minimal effective concentration (Klebsiella pneumoniae [23]): > 32 µM; minimal effective concentration (Enterococcus faecium [24]): 1 µM; minimal effective concentration (Enterococcus faecium [25]): 4 µM; minimal effective concentration (Enterococcus faecium [26]): 2 µM; minimal effective concentration (Enterococcus faecium [27]): 4 µM; minimal effective concentration (Pseudomonas aeruginosa [28]): 8 µM; minimal effective concentration (Pseudomonas aeruginosa [29]): 4 µM; minimal effective concentration (Pseudomonas aeruginosa [30]): > 32 µM; minimal effective concentration (Pseudomonas aeruginosa [31]): 4 µM; minimal effective concentration (Escherichia coli [32]): > 32 µM; minimal effective concentration (Escherichia coli [33]): > 32 µM; minimal effective concentration (Escherichia coli [34]): > 32 µM
